Laboratory results: patent US6482802B1 (Endowment for Research in Human Biology, Inc., priority 1998, dated 2002)
Several values for one entry are separate records, joined by “and”; a condition that tells them apart may be missing. Equal entries are not always repeated. Entries after “also recorded” stand apart in the source; their conditions may differ.

Assays:
[1] = system: chorioallantoic membrane (CAM) of chick embryos; test: CAM assay, aFGF-induced angiogenesis; assay type: in vivo; conditions: aFGF 10 ng alone
Procedure: (§1) Angiogenesis was measured on the CAM by the method of Knighton et al. (Knighton et al., 1977, Br. J. Cancer 35:347-356) essentially as described (Fett et al., 1985, Biochemistry 24:5480-5486). Fertilized chicken eggs were kept at 18° C. for 2 days and then incubated in a humidified environment at 37° C. for 3 days. Albumin was aspirated from the embryos and after 24 hours, a “window” was cut through the shell and covered with clear tape. […] After 48-68 hours at 37° C., the growth of blood vessels was observed microscopically and recorded as either positive or negative. A positive response (i.e., an angiogenic response) has a typical “spokewheel” appearance.

HUVE cells [2] = test: Angiogenin-induced proliferation of HUVE cells; assay type: cell-based, human; conditions: for Cell number / percent of cell number in the presence of 1 μg/ml angiogenin relative to the corresponding control: aminoglycoside 100 μM; for percent of cell number in the presence of 1 μg/ml angiogenin relative to the corresponding control: none: 120; for inhibition of angiogenin-induced cell proliferation: aminoglycoside 100 μM (Table 3)
Procedure: (§2) HUVE cells were seeded at 4×10^3 cells/cm^2 in attachment factor (Cell Systems Corp.)-coated 35 mm dishes in HE-SFM, and incubated with 1 μg/ml angiogenin in the presence or absence of inhibitors at 37° C. for 48 hr. Cell were detached by trypsinization and cell numbers were determined with a Coulter counter.

HUVE cells [3] = test: bFGF-induced proliferation of HUVE cells, aminoglycoside antibiotics; assay type: cell-based, human; conditions: aminoglycoside 100 μM; for % Inhibition of bFGF-induced cell proliferation / bFGF (10 ng/ml) Cell Numbers: bFGF 10 ng/ml; for bFGF (10 ng/ml) Cell Numbers / Control (cell number without bFGF): 48 hr; for bFGF (10 ng/ml) Cell Numbers: control 99000 ± 1000; for Control (cell number without bFGF): no bFGF, control 61300 ± 500
Procedure: as §2
The ability of the other members of the aminoglycoside antibiotic family to inhibit bFGF-induced proliferation of HUVE cells was examined in a similar manner as for angiogenin as described in Section 6.1.1.5, above. HUVE cells, passage 9, were seeded on attachment-factor coated dishes at 50,000 cells per 35 mm dish in HE-SFM. Aminoglycoside antibiotics were added and the cells were incubated with or without […] at 37° C. for 48 hr.

HUVE cells [4] = test: Cytotoxicity against HUVE cells; assay type: cell-based, human; conditions: concentration not given
Procedure: Human umbilical vein endothelial (HUVE) cells were purchased from Cell Systems Corp. (Kirkland, Wash.). […] Cells between passages 5 and 12 inclusive were used for all experiments. Cell numbers were determined with a Coulter counter, and cell viability was measured by trypan blue dye exclusion assay.

[5] = system: nuclear translocation of 125I-angiogenin in HUVE cells; test: Nuclear translocation of 125I-angiogenin in HUVE cells; conditions: for Nuclear 125I-angiogenin: 37° C. 30 min, control 3090 ± 260; for Nuclear 125I-angiogenin / % inhibition of nuclear translocation of angiogenin: 125I-angiogenin 1 μg/ml 30 min; for effect on nuclear translocation of 125I-angiogenin: HUVE cells, concentrations as in Table 1
[6] = system: chorioallantoic membrane (CAM) of chick embryos; test: CAM assay, angiogenin-induced angiogenesis; assay type: in vivo; conditions: for inhibition of angiogenin-induced angiogenesis in CAM assay: in vivo
Procedure: as §1

[7] = system: chorioallantoic membrane (CAM) of chick embryos; test: CAM assay, VEGF-induced angiogenesis; assay type: in vivo; conditions: VEGF 10 ng alone
Procedure: as §1

[8] = system: chorioallantoic membrane (CAM) of chick embryos; test: CAM assay, EGF-induced angiogenesis; assay type: in vivo; conditions: EGF 10 ng alone
Procedure: as §1

[9] = system: chorioallantoic membrane (CAM) of chick embryos; test: CAM assay, bFGF-induced angiogenesis; assay type: in vivo; conditions: bFGF 10 ng alone
Procedure: as §1

[10] = with angiogenin 1 μg/ml, none: 62,500 ± 100
[11] = without angiogenin, none: 52,000 ± 100

aFGF: acidic fibroblast growth factor
Positive eggs ([1]; 49 total eggs): 36
% Positive ([1]; water 21): 73%

NC[C@H]1O[C@H](O[C@H]2[C@H](O)[C@@H](O[C@H]3O[C@H](CO)[C@@H](O)[C@H](N)[C@H]3O)[C@H](N)C[C@@H]2N)[C@H](O)[C@@H](O)[C@@H]1O [Kanamycin, kanamycin]
Cell number (HUVE cells [2]; [10]): 58,900 ± 200
Cell number (HUVE cells [2]; [11]): 48,800 ± 400
percent of cell number in the presence of 1 μg/ml angiogenin relative to the corresponding control (HUVE cells [2]): 121%
% Inhibition of bFGF-induced cell proliferation (HUVE cells [3]): 8%
bFGF (10 ng/ml) Cell Numbers (HUVE cells [3]): 98000 ± 2500
Control (cell number without bFGF) (HUVE cells [3]): 62600 ± 1100
cytotoxicity against HUVE cells (HUVE cells [4]): no cytotoxicity

COc1ccc2c(c1)CC[C@@H]1[C@@H]2CC[C@]2(C)[C@@H](NCCCCCCN3C(=O)C=CC3=O)CC[C@@H]12 [U-73122]
Nuclear 125I-angiogenin ([5]; inhibitor 10 μM): 2140 ± 30 cpm
% inhibition of nuclear translocation of angiogenin ([5]; inhibitor 10 μM, 10 µM): 30% and 31%

NCC[C@H](O)C(=O)N[C@@H]1C[C@H](N)[C@@H](O[C@H]2O[C@H](CN)[C@@H](O)[C@H](O)[C@H]2O)[C@H](O)[C@H]1O[C@H]1O[C@H](CO)[C@@H](O)[C@H](N)[C@H]1O [Amikacin, amikacin]
inhibition of angiogenin-induced cell proliferation (HUVE cells [2]): None
Cell number (HUVE cells [2]; [10]): 61,000 ± 400
Cell number (HUVE cells [2]; [11]): 51,700 ± 200
percent of cell number in the presence of 1 μg/ml angiogenin relative to the corresponding control (HUVE cells [2]): 118%
inhibition of angiogenin-induced angiogenesis in CAM assay [6]: do not inhibit angiogenin-induced angiogenesis
significant inhibitory effect on cell proliferation induced by bFGF (HUVE cells [3]): no
% Inhibition of bFGF-induced cell proliferation (HUVE cells [3]): 11%
bFGF (10 ng/ml) Cell Numbers (HUVE cells [3]): 97600 ± 1300
Control (cell number without bFGF) (HUVE cells [3]): 63000 ± 900
cytotoxicity against HUVE cells (HUVE cells [4]): no cytotoxicity

[H]/N=C(/N)N[C@H]1[C@H](O)[C@@H](O)[C@H](O[C@@H]2O[C@@H](C)[C@](O)(C=O)[C@H]2O[C@@H]2O[C@@H](CO)[C@H](O)[C@@H](O)[C@@H]2NC)[C@@H](N/C(N)=N\[H])[C@@H]1O [Streptomycin, streptomycin]
inhibition of angiogenin-induced cell proliferation (HUVE cells [2]): None
Cell number (HUVE cells [2]; [10]): 59,900 ± 900
Cell number (HUVE cells [2]; [11]): 51,900 ± 1,300
percent of cell number in the presence of 1 μg/ml angiogenin relative to the corresponding control (HUVE cells [2]): 115%
inhibition of angiogenin-induced angiogenesis in CAM assay [6]: do not inhibit angiogenin-induced angiogenesis
significant inhibitory effect on cell proliferation induced by bFGF (HUVE cells [3]): no
% Inhibition of bFGF-induced cell proliferation (HUVE cells [3]): 0%
bFGF (10 ng/ml) Cell Numbers (HUVE cells [3]): 104200 ± 400
Control (cell number without bFGF) (HUVE cells [3]): 62300 ± 600
cytotoxicity against HUVE cells (HUVE cells [4]): no cytotoxicity

VEGF
Positive eggs ([7]; 27 total eggs): 17
% Positive ([7]; water 21): 63%

CN[C@@H]1C[C@H]2O[C@@](C)([C@@H]1OC)n1c3ccccc3c3c4c(c5c6ccccc6n2c5c31)C(=O)NC4 [Staurosporine, staurosporine]
effect on nuclear translocation of 125I-angiogenin [5]: only marginally inhibitory; also recorded: do not inhibit nuclear translocation of angiogenin
Nuclear 125I-angiogenin ([5]; inhibitor 100 nM): 2710 ± 70 cpm

gentamicin
inhibition of angiogenin-induced cell proliferation (HUVE cells [2]): None
Cell number (HUVE cells [2]; [10]): 55,700 ± 900
Cell number (HUVE cells [2]; [11]): 45,700 ± 500
percent of cell number in the presence of 1 μg/ml angiogenin relative to the corresponding control (HUVE cells [2]): 121%
significant inhibitory effect on cell proliferation induced by bFGF (HUVE cells [3]): no
% Inhibition of bFGF-induced cell proliferation (HUVE cells [3]): 5%
bFGF (10 ng/ml) Cell Numbers (HUVE cells [3]): 98400 ± 1900
Control (cell number without bFGF) (HUVE cells [3]): 61800 ± 1200
cytotoxicity against HUVE cells (HUVE cells [4]): no cytotoxicity

O=c1c(-c2ccc(O)cc2)coc2cc(O)cc(O)c12 [Genistein, genistein]
effect on nuclear translocation of 125I-angiogenin [5]: no effect; also recorded: do not inhibit nuclear translocation of angiogenin
inhibition at 100 µM ([5]; Homo sapiens, 0.5 h, read-out: % inhibition of nuclear translocation of angiogenin): 0%
Nuclear 125I-angiogenin ([5]; inhibitor 100 μM): 3300 ± 170 cpm

NC[C@@H]1O[C@H](O[C@H]2[C@@H](O)[C@H](O[C@@H]3[C@@H](O)[C@H](N)C[C@H](N)[C@H]3O[C@H]3O[C@H](CO)[C@@H](O)[C@H](O)[C@H]3N)O[C@@H]2CO)[C@H](N)[C@@H](O)[C@@H]1O [Paromomycin, paromomycin]
inhibition of angiogenin-induced cell proliferation (HUVE cells [2]): did not inhibit angiogenin-induced cell proliferation; also recorded: no inhibitory activity at all
Cell number (HUVE cells [2]; [10]): 58,900 ± 400
Cell number (HUVE cells [2]; [11]): 50,900 ± 500
percent of cell number in the presence of 1 μg/ml angiogenin relative to the corresponding control (HUVE cells [2]): 116%
cytotoxicity against HUVE cells (HUVE cells [4]): no cytotoxicity

EGF: epidermal growth factor
Positive eggs ([8]; 26 total eggs): 18
% Positive ([8]; water 21): 69%

Angiogenin: Human angiogenin (Met-1), recombinant product from an Escherichia coli expression system
increase of cell number after 48 hr (HUVE cells [2]; angiogenin 1 μg/ml, no neomycin): 35%
% Positive (angiogenic response) ([6]; angiogenin 10 ng alone, water 20): 55%

COc1ccc2c(c1)CC[C@@H]1[C@@H]2CC[C@]2(C)[C@@H](NCCCCCCN3C(=O)CCC3=O)CC[C@@H]12 [U-73343]
effect on nuclear translocation of 125I-angiogenin [5]: no effect
Nuclear 125I-angiogenin ([5]; inhibitor 10 μM): 2890 ± 100 cpm
% inhibition of nuclear translocation of angiogenin ([5]; inhibitor 10 μM): 6%

bFGF: basic fibroblast growth factor
Positive eggs ([9]; 37 total eggs): 29
% Positive ([9]; water 21): 78%
